We go through one compound from patent US20100004234A1, “SPECIFIC KINASE INHIBITORS” (Kosan Biosciences Incorporated, priority 2004, published 2010).

The structures appear in SMILES notation. Where two headings read alike, the source gives them in different places. A value given as a limit tells only on which side of the number the result lay.

For test [1], the system named is SKOV3 (ovarian cancer cell line, wild-type B-Raf). In words: Cell proliferation assay. The format is cell-based. The settings on record: Homo sapiens, SK-OV-3, read-out: Cell Line IC50 SKOV3. As to the method: In one illustrative method, cells are treated with various concentrations of the inhibitor in 96 well plates, incubated at 37° C./5% CO2 for three days, and analyzed using the Cell Titer Glo kit (Promega).
COLO829 is a human melanoma cell line. HT29 is a human colon cancer cell line. Both cell lines have a V600E B-Raf mutation. SKOV3 is an ovarian cancer cell line having wild-type B-Raf. EKR2 (extra-cellular signal regulated kinase 2) is a kinase in the Ras/B-Raf MAP kinase cascade pathway.

Test [2] deals with ERK2 (UniProt P28482). The format is biochemical. The arrangement: other: calculated for 0.1 μM for ~10 minutes; Ki; other: ERK2; kinact/Ki; "the target Cys 172 residue. How it is done:
(§1) In either case, the time dependent inactivation can be dampened by the presence of a competing substrate, in this case ATP.
(§2) For covalent inhibitors, plots of log (activity) versus time provide apparent first-order rate constants (kobsd) of enzyme activity loss. If these assays are performed at varying concentrations of inhibitor, a series of first-order plots is obtained and kobsd obtained at each inhibitor concentration. […] Such molecules may be competitive inhibitors but should not show time-dependent inactivation.
(§3) Inhibition progress curve analysis was performed using continuous, colorimetric, or fluorimetric assays. All experiments were done at 1 mM ATP, with the exception of KDR (at 5 mM ATP).
(§4) MEK1 assays were performed using pre-incubation experiments with radioactive [^32P]ATP and filter binding of product. All other kinases were analyzed using progress curve analysis from a continuous spectrophotometric assay.

In test [3] the target is ERK2 (UniProt P28482). It counts as biochemical. The arrangement: "the target Cys 172 residue. The settings on record: Table 7. As to the method: as §1, §2, §3, §4
A further test has as its target TrkA (Homo sapiens, UniProt P04629). The test is described as follows: Time-dependent kinase inhibition kinetics (progress curve). The format is biochemical. As to the method:
(§5) Typically, one measures the increase in inhibition of protein kinase activity in the presence of inhibitor over time. In one method, aliquots of a “pre-incubation” reaction mixture containing enzyme and inhibitor are assayed for activity (initial velocities) over time; increased inhibition or decreased initial velocities will be observed over time as the Michael adduct forms (Walsh, C, Enzyme Reaction Mechanisms, W.H. Freeman & Co., 1979, pp 86-94). In a second method, the time dependent loss of activity is measured as “progress curves” that measure and analyze product formed (e.g. ADP) versus time (Morrison & Walsh, Adv. Enzymol Relat Areas Mol. Biol. 1988, 61, 201-301). In either case, the time dependent inactivation can be dampened by the presence of a competing substrate, in this case ATP.
(§6) For covalent inhibitors, plots of log (activity) versus time provide apparent first-order rate constants (kobsd) of enzyme activity loss. If these assays are performed at varying concentrations of inhibitor, a series of first-order plots is obtained and kobsd obtained at each inhibitor concentration. To measure time-dependent inhibition using the “progress-curve method” (see references cited above and Kuzmic et al., Methods Enzymol 2004; 383: 366-81), ERK (or other kinase) is treated with varying amounts of the lactone inhibitor, and the formation of ADP is measured continuously by a coupled assay. […] Such molecules may be competitive inhibitors but should not show time-dependent inactivation.
(§7) Those of skill in the art will recognize that within the set of compounds useful in the methods of the invention, significant variability in specificity can be achieved, allowing one to identify optimal compounds for different applications. Inhibition progress curve analysis was performed using continuous, colorimetric, or fluorimetric assays. All experiments were done at 1 mM ATP, with the exception of KDR (at 5 mM ATP).
as §4

The target in the next test is TrkB (Homo sapiens, UniProt Q16620). Described as above. It counts as biochemical. How it is done: as §5, §6, §7, §4
Chain of TrkB (Q16620 32-822): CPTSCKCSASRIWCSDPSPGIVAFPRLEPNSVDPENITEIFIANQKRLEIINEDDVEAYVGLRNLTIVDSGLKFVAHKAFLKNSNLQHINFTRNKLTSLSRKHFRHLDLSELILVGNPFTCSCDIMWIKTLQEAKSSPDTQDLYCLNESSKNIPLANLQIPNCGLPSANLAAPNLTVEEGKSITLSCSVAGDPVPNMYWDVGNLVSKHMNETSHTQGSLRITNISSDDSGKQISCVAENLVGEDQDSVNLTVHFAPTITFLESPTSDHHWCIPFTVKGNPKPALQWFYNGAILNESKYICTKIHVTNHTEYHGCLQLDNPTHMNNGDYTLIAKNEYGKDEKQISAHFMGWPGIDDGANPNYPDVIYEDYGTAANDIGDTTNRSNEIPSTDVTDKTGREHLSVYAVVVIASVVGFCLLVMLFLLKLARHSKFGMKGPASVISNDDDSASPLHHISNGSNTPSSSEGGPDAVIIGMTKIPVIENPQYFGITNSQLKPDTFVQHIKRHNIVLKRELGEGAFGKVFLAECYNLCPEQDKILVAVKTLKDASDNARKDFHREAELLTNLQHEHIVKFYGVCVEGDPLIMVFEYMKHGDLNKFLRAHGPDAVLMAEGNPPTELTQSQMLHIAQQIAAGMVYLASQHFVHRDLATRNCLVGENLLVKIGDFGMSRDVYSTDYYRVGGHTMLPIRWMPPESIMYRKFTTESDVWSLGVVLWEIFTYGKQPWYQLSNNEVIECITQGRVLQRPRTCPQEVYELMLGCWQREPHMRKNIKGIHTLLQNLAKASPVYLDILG
The target of another test is Flt-1 (VEGFR1) (Homo sapiens, UniProt P17948). The description is as above. The format is biochemical. How it is done: as §5, §6, §7, §4
Chain of Flt-1 (VEGFR1) (P17948 27-1338): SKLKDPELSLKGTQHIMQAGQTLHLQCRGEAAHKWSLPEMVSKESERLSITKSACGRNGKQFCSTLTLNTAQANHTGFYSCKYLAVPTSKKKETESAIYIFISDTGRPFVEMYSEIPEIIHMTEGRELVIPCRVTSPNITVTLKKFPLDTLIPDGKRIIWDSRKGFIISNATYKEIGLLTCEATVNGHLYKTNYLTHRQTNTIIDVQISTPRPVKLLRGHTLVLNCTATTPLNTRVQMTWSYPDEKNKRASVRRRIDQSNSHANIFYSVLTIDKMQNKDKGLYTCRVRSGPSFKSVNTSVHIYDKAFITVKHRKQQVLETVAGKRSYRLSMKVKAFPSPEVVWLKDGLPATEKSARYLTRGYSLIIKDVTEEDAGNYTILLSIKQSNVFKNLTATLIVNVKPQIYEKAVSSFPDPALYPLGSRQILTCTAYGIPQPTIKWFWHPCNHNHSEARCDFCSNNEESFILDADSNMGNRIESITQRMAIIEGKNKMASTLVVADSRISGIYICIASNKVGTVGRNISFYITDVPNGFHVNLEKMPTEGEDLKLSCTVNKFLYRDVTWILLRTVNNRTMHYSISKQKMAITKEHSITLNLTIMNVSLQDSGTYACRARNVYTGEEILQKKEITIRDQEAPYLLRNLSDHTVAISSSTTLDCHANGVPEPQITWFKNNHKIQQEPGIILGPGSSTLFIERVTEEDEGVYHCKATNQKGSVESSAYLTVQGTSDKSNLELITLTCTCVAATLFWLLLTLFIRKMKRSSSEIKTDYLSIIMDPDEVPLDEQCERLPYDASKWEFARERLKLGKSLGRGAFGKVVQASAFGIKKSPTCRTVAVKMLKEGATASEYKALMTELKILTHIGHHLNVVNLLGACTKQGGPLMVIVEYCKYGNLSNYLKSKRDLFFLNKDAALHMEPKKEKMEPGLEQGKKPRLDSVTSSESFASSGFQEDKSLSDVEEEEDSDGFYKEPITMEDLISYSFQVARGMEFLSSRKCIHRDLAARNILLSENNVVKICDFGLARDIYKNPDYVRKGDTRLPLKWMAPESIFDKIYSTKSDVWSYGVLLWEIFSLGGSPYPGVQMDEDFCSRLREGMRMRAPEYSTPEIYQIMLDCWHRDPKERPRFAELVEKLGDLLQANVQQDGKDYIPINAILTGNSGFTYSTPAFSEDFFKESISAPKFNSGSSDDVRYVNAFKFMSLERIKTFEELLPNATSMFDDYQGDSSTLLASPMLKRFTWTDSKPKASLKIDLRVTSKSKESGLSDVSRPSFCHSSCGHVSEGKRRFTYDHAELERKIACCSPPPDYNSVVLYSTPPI
The target of the next test is PDGFRβ (Homo sapiens, UniProt P09619). Described as above. The format is biochemical. As to the method: as §5, §6, §7, §4
Chain of PDGFRβ (P09619 33-1106): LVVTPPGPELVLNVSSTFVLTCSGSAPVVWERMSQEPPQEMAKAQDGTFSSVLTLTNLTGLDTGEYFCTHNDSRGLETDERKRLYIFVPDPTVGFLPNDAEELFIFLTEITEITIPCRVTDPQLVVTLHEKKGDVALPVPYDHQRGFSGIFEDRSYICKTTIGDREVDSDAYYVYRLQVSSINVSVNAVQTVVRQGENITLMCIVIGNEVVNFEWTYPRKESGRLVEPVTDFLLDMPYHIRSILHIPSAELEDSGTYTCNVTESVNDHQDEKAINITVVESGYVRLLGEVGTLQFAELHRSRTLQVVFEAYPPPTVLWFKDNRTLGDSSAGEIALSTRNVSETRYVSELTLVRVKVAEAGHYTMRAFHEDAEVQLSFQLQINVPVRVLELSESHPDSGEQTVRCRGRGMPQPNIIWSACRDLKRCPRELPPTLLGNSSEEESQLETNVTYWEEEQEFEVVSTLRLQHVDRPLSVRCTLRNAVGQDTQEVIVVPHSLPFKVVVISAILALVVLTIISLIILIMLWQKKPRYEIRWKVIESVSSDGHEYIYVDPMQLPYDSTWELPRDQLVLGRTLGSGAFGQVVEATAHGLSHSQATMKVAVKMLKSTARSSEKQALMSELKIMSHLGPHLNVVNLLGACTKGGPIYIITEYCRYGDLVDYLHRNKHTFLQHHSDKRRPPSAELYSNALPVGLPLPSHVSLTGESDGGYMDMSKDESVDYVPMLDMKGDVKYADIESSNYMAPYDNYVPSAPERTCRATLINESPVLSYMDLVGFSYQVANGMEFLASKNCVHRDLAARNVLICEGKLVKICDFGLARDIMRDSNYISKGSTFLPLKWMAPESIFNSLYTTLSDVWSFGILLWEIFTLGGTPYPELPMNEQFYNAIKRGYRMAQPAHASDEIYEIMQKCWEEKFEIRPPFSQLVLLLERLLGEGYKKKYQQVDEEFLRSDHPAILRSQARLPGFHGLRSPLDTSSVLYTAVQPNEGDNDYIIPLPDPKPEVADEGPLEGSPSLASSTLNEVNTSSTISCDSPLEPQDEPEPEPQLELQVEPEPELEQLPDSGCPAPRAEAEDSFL
The target of the next test is PDGFRα (Homo sapiens, UniProt P16234). The test is described as above. The format is biochemical. As to the method:
as §5, §6, §7, §4

A further test deals with GSK3α (Homo sapiens, UniProt P49840). Described as above. It counts as biochemical. As to the method: as §5, §6, §7, §4

Chain of PDGFRα (P16234 24-1089): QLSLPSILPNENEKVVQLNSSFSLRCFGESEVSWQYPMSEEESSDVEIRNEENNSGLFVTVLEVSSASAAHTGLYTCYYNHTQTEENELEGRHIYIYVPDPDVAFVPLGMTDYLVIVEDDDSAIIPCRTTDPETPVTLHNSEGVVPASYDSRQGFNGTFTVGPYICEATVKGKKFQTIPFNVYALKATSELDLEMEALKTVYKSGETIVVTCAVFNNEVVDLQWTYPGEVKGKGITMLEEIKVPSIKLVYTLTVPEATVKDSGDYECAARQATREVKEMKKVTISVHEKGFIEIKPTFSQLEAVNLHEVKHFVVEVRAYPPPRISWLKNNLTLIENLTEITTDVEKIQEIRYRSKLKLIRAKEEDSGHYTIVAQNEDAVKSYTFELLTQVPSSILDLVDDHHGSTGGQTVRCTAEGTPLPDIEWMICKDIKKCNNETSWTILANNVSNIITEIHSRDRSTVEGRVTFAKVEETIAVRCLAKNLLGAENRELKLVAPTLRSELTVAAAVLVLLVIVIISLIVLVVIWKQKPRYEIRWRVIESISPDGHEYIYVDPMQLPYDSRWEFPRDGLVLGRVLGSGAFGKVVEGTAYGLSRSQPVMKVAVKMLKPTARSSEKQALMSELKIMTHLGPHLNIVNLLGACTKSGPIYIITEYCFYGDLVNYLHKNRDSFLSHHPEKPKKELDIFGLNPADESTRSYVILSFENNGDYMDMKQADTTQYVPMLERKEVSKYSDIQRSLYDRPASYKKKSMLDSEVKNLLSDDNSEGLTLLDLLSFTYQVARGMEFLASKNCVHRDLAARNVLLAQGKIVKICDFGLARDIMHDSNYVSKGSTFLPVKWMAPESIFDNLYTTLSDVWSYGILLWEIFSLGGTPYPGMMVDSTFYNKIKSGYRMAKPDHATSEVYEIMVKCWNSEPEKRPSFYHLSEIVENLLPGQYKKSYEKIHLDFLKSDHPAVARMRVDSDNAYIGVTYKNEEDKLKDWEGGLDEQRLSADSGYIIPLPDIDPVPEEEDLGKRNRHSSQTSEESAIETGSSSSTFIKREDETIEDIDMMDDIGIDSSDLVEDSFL
Chain of TrkA (P04629 33-796): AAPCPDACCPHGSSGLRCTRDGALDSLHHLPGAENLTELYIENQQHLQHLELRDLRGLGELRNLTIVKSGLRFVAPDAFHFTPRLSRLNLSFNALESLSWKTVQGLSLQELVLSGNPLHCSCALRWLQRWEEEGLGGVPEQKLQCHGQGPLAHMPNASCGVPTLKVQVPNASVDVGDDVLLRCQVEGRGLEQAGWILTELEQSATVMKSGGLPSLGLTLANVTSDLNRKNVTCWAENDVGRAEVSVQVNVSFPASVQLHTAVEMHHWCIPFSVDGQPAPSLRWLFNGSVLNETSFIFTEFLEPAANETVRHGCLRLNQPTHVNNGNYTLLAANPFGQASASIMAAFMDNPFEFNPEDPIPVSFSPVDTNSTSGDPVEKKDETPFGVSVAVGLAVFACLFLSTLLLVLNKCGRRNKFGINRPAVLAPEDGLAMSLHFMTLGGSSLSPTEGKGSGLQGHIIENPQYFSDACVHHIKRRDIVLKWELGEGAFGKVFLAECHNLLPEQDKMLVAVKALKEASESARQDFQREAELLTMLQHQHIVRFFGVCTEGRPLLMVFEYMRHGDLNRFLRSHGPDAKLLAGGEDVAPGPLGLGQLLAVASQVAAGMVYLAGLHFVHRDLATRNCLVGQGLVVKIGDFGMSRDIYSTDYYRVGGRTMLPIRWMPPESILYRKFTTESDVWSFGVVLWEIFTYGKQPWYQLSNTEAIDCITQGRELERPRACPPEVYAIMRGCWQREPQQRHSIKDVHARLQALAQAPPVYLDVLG

For `COc1cc(O)c2c(c1)[C@H]1O[C@@H]1C[C@H](O)[C@H](O)C(=O)/C=C\C[C@H](C)OC2=O` [Hypothemycin, hypothemycin], the IC50 in [1] was roughly 4000 nM. Further, the Ki at ERK2 [2] (ERK2) is 2000 nM; on ERK2 [3] (read-out: ERK2 Inhibition Ki), 1900 ± 1100 nM; at TrkA (TRKA, reversible inhibition competitive with ATP), 2200 nM; at TrkB (TRKB, reversible inhibition competitive with ATP), 370 nM; at Flt-1 (VEGFR1) (1 mM ATP, significant decrease of enzyme activity over time without inhibitor) it was 110 nM; on PDGFRβ (1 mM ATP) it was 1200 nM. The results for the Ki on PDGFRα (1 mM ATP) and on GSK3α were 1500 nM and greater than 630000 nM, respectively. The kinact/Ki on ERK2 [2] (ERK2) was 1.9E+03; at TrkA (TrkA), “None”; on TrkB (TrkB), “None”. Moreover, the ERK activity inhibited on ERK2 [2] (calculated for 0.1 μM for ~10 minutes) is given as less than 5%. Besides, the “ERK2 Inhibition kinact.” value on ERK2 [3] is 5 ± 2 × 10^−3 sec^−1. Besides, the “time-dependent inactivation (covalent bond formation)” value at TrkA (TrkA) and at TrkB (TrkB) was “did not show time-dependent inactivation” throughout. Besides, the maximal inactivation rate constant (kinact) entry at TrkA (TrkA, 1 mM ATP) is “None”; on TrkB (TrkB, 1 mM ATP), “None”; on Flt-1 (VEGFR1) (1 mM ATP), 0.018 s⁻¹; on PDGFRβ (1 mM ATP), 0.003 s⁻¹; at PDGFRα (1 mM ATP), 0.002 s⁻¹. The kinact/KI at Flt-1 (VEGFR1) was determined as 160000 M⁻¹ s⁻¹; at PDGFRβ, 2500 M⁻¹ s⁻¹; on PDGFRα, 1300 M⁻¹ s⁻¹.
